Key:
[1] = molecular target: T1, PKMYT1 (Homo sapiens, UniProt Q99640); experiment: ADP-Glo PKMYT1 ATP-depletion assay; details: 50 nM PKMYT1, 13.3 nM CDK1, read-out: Biochemical IC50
T1 construct: PKMYT1 (93 kD, full length, N-terminal GST tag from Signal Chem); GST (N); purchased Signal Chem
T1 sequence (Q99640 1-499): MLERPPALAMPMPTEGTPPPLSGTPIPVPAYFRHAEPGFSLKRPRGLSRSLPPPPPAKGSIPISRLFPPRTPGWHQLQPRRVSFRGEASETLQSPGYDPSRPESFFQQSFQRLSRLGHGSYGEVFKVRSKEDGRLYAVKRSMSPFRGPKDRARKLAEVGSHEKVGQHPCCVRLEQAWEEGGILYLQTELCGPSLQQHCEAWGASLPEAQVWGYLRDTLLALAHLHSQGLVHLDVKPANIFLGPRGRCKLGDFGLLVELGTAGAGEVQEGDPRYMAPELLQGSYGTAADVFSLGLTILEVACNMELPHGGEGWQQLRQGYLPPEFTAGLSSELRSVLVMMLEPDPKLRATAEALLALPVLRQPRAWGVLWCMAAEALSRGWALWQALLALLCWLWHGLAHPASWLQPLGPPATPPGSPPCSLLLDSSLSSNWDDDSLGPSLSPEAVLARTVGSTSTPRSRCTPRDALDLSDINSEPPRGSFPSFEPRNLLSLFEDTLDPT
In short: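 Full-length N-terminal GST-tagged PKMYT1 (50 nM) with GST-CDK1 (13.3 nM) as substrate and 88 µM ATP, in Hepes buffer with MgCl2, MnCl2, DTT and BSA; DMSO <1%. Incubated 120 min at RT. ADP formed was quantified by ADP-Glo luminescence and used to derive biochemical IC50.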

[2] = tested on: phosphorylation of CDK1 at Thr14 in HCC1806 cells; experiment: Cell lysate AlphaLISA assay measuring inhibition of phosphorylation of CDK1 Thr14; format: cell-based; details: Homo sapiens, HCC1806, 4 h, read-out: Cellular IC50
In short: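 HCC1806 cells seeded overnight, then treated 4 h at 37 °C, 5% CO2 with compounds in DMSO; washed and lysed, lysates frozen overnight at −80 °C. CDK1 Thr14 phosphorylation read by AlphaLISA SureFire Ultra; data normalized to DMSO (0% inhibition) and 3 μM reference compound to give IC50.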

IC50 [1]: < 50 nM
IC50 [2]: 50 to 500 nM
SMILES: Cc1c(O)cccc1-c1c(N)c(C(N)=O)nc2cccnc12 [Compound 2, 3-Amino-4-(3-hydroxy-2-methylphenyl)-1,5-naphthyridine-2-carboxamide]

Source: patent US20260176270A1 (Exelixis, Inc., priority 2022, published 2026)
